Assay results as given in ChEMBL document CHEMBL3994598, “Silychristin: Skeletal Alterations and Biological Activities” (J Nat Prod, 2016).

Columns and labels:
[1] = Partition coefficient, logP of the compound in octan-1-ol and phosphate buffer at pH 7.4 at 25 degC after 2 hrs by UV-vis spectrometer; format: physicochemical; settings: octan-1-ol/phosphate buffer
BJ = assay: Cytotoxicity against human BJ cells at 0.0003 to 100 uM after 48 hrs by ATPlite assay; format: cell-based
[2] = Antioxidant activity assessed as trolox equivalent of ABTS radical scavenging activity at 100 uM incubated for >= 5 mins; format: functional
TERT-RPE1 = assay: Cytotoxicity against human RPE1 cells at 0.0003 to 100 uM after 48 hrs by ATPlite assay; format: cell-based; settings: tert-rpe1, 48 h
MDA-MB-231 = assay: Cytotoxicity against human MDA-MB-231 cells at 0.0003 to 100 uM after 48 hrs by ATPlite assay; format: cell-based; settings: mda-mb-231, 48 h
[3] = Antioxidant activity assessed as DPPH radical scavenging activity after 30 mins; format: functional
MCF7 = assay: Cytotoxicity against human MCF7 cells at 0.0003 to 100 uM after 48 hrs by ATPlite assay; format: cell-based; settings: mcf7, 48 h
HL-60 = assay: Cytotoxicity against human HL60 cells at 0.0003 to 100 uM after 48 hrs by ATPlite assay; format: cell-based; settings: hl-60, 48 h
PC-3 = assay: Cytotoxicity against human PC3 cells at 0.0003 to 100 uM after 48 hrs by ATPlite assay; format: cell-based; settings: pc-3, 48 h
HepG2 = assay: Cytotoxicity against human HepG2 cells at 0.0003 to 100 uM after 48 hrs by ATPlite assay; format: cell-based; settings: hepg2, 48 h
[4] = Antiradical activity assessed as gallic acid equivalents of Foline-Ciocalteu reagent reducing capacity at 1 mM preincubated for 5 mins followed by Na2CO3 addition measured after 90 mins
Liver = assay: Antioxidant activity against tert-butyl hydroperoxide-induced lipoperoxidation in rat liver microsomal membranes incubated for 60 mins by TBARS assay; format: functional, cell membranes, Microsomal Membrane; settings: 1 h
[5] = Cytotoxicity against human primary prostate mesenchymal cells at 0.0003 to 100 uM after 48 hrs by ATPlite assay; format: cell-based; settings: primary prostate mesenchymal cell
K562 = assay: Cytotoxicity against human K562 cells at 0.0003 to 100 uM after 48 hrs by ATPlite assay; format: cell-based; settings: k562, 48 h
CAL-51 = assay: Cytotoxicity against human CAL51 at 0.0003 to 100 uM after 48 hrs by ATPlite assay; format: cell-based; settings: cal-51, 48 h

For `COc1cc(-c2oc3c(O)cc(-c4oc5cc(O)cc(O)c5c(=O)c4O)cc3c2C)ccc1O`, the logD at 2 h [1] was -0.24, the Activity (BJ) was “Toxic” and the Activity [2] was 1.43 equiv. The Activity (TERT-RPE1) was “Toxic”, the Activity (MDA-MB-231) was “Toxic” and the IC50 [3] was 3.56 µM. For the same compound, the Activity (MCF7) was “Toxic”, the Activity (HL-60) was “Toxic” and the Activity (PC-3) was “Toxic”. For the same compound, the Activity (HepG2) was “Toxic”, the Activity [4] was 2.13 equiv and the IC50 (Liver) was 6.43 µM. The Activity [5] was “Toxic”, the Activity (K562) was “Toxic” and the Activity (CAL-51) was “Toxic”.

In the case of `COc1cc([C@@H]2Oc3c(O)cc([C@@H]4CC(=O)c5c(O)cc(O)cc5O4)cc3[C@H]2CO)ccc1O`, the logD at 2 h [1] is reported as -0.37, the Activity (BJ) is reported as “Toxic” and the Activity [2] is reported as 0.77 equiv. For the same compound, the Activity (TERT-RPE1) was “Toxic”, the Activity (MDA-MB-231) was “Toxic” and the IC50 [3] was 43 µM. For the same compound, the Activity (MCF7) was “Toxic”, the Activity (HL-60) was “Toxic” and the Activity (PC-3) was “Toxic”. The Activity (HepG2) was “Toxic”, the Activity [4] was 1.24 equiv and the IC50 (Liver) was 12.6 µM. The Activity [5] was “Toxic”, the Activity (K562) was “Toxic” and the Activity (CAL-51) was “Toxic”.

For `COc1cc([C@@H]2Oc3c(O)cc(-c4oc5cc(O)cc(O)c5c(=O)c4O)cc3[C@H]2CO)ccc1O`, the logD at 2 h [1] was -1.01, the Activity (BJ) was “Toxic” and the Activity [2] was 1.79 equiv. The Activity (TERT-RPE1) was “Toxic”, the Activity (MDA-MB-231) was “Toxic” and the IC50 [3] was 4.88 µM. The Activity (MCF7) was “Toxic”, the Activity (HL-60) was “Toxic” and the Activity (PC-3) was “Toxic”. The Activity (HepG2) was “Toxic”, the Activity [4] was 3.06 equiv and the IC50 (Liver) was 5.45 µM. The Activity [5] was “Toxic”, the Activity (K562) was “Toxic” and the Activity (CAL-51) was “Toxic”.

With `COc1cc(-c2oc3c(O)cc([C@H]4Oc5cc(O)cc(O)c5C(=O)[C@@H]4O)cc3c2C)ccc1O` the logD at 2 h [1] was -0.74, the Activity (BJ) was “Toxic” and the Activity [2] was 0.99 equiv. The Activity (TERT-RPE1) was “Toxic”, the Activity (MDA-MB-231) was “Toxic” and the IC50 [3] was 17.9 µM. For the same compound, the Activity (MCF7) was “Toxic”, the Activity (HL-60) was “Toxic” and the Activity (PC-3) was “Toxic”. For the same compound, the Activity (HepG2) was “Toxic”, the Activity [4] was 1.74 equiv and the IC50 (Liver) was 4.12 µM. The Activity [5] was “Toxic”, the Activity (K562) was “Toxic” and the Activity (CAL-51) was “Toxic”.

For `COc1cc(C2Oc3cc([C@H]4Oc5cc(O)cc(O)c5C(=O)[C@@H]4O)ccc3OC2CO)ccc1O` (mixture of isomers) [SILIBININ], the Activity [2] was 0.47 equiv, the IC50 [3] was 553 µM and the Activity [4] was 0.92 equiv. For the same compound, the IC50 (Liver) was 67 µM.

In the case of `CC[C@@]1(O)C(=O)OCc2c1cc1n(c2=O)Cc2cc3ccccc3nc2-1` [CAMPTOTHECIN], the Activity (BJ) is reported as “Toxic”, the Activity (TERT-RPE1) is reported as “Toxic” and the Activity (MDA-MB-231) is reported as “Toxic”. For the same compound, the Activity (MCF7) was “Toxic”, the Activity (HL-60) was “Toxic” and the Activity (PC-3) was “Toxic”. The Activity (HepG2) was “Toxic”, the Activity [5] was “Toxic” and the Activity (K562) was “Toxic”. The Activity (CAL-51) was “Toxic”.

In the case of `COc1cc(C2Oc3cc(-c4oc5cc(O)cc(O)c5c(=O)c4O)ccc3OC2CO)ccc1O` (stereo not drawn) [DEHYDROSILYLBIN], the Activity (BJ) is reported as “Toxic”, the Activity [2] is reported as 0.56 equiv and the Activity (TERT-RPE1) is reported as “Toxic”. The Activity (MDA-MB-231) was “Toxic”, the IC50 [3] was 9.32 µM and the Activity (MCF7) was “Toxic”. For the same compound, the Activity (HL-60) was “Toxic”, the Activity (PC-3) was “Toxic” and the Activity (HepG2) was “Toxic”. For the same compound, the Activity [4] was 1.29 equiv, the IC50 (Liver) was 13 µM and the Activity [5] was “Toxic”. For the same compound, the Activity (K562) was “Toxic” and the Activity (CAL-51) was “Toxic”.

For `COc1cc([C@@H]2Oc3c(O)ccc([C@H]4Oc5cc(O)cc(O)c5C(=O)[C@@H]4O)c3[C@H]2CO)ccc1O` [ISOSILYCHRISTIN], the logD at 2 h [1] was -0.47, the Activity (BJ) was “Non-Toxic” and the Activity [2] was 0.65 equiv. For the same compound, the Activity (TERT-RPE1) was “Non-Toxic”, the Activity (MDA-MB-231) was “Non-Toxic” and the IC50 [3] was 53.1 µM. For the same compound, the Activity (MCF7) was “Non-Toxic”, the Activity (HL-60) was “Non-Toxic” and the Activity (PC-3) was “Non-Toxic”. The Activity (HepG2) was “Non-Toxic”, the Activity [4] was 1.74 equiv and the IC50 (Liver) was 36.7 µM. For the same compound, the Activity [5] was “Non-Toxic”, the Activity (K562) was “Non-Toxic” and the Activity (CAL-51) was “Non-Toxic”.

In the case of `COc1cc(C2Oc3c(O)cc([C@H]4Oc5cc(O)cc(O)c5C(=O)[C@@H]4O)cc3C2CO)ccc1O` (stereo partly drawn) [SILICRISTIN], the logD at 2 h [1] is reported as -0.39, the Activity (BJ) is reported as “Non-Toxic” and the Activity [2] is reported as 1.09 equiv. The Activity (TERT-RPE1) was “Non-Toxic”, the Activity (MDA-MB-231) was “Non-Toxic” and the IC50 [3] was 19 µM. For the same compound, the Activity (MCF7) was “Non-Toxic”, the Activity (HL-60) was “Non-Toxic” and the Activity (PC-3) was “Non-Toxic”. For the same compound, the Activity (HepG2) was “Non-Toxic”, the Activity [4] was 1.49 equiv and the IC50 (Liver) was 10.3 µM. For the same compound, the Activity [5] was “Non-Toxic”, the Activity (K562) was “Non-Toxic” and the Activity (CAL-51) was “Non-Toxic”.

With `COc1cc([C@H]2Oc3cc([C@H]4Oc5cc(O)cc(O)c5C(=O)[C@@H]4O)ccc3O[C@@H]2CO)ccc1O` [SILYBIN A] the Activity (BJ) was “Toxic”, the Activity (TERT-RPE1) was “Toxic” and the Activity (MDA-MB-231) was “Toxic”. For the same compound, the Activity (MCF7) was “Toxic”, the Activity (HL-60) was “Toxic” and the Activity (PC-3) was “Toxic”. For the same compound, the Activity (HepG2) was “Toxic”, the Activity [5] was “Toxic” and the Activity (K562) was “Toxic”. The Activity (CAL-51) was “Toxic”.

In the case of `COc1cc([C@@H]2Oc3cc([C@H]4Oc5cc(O)cc(O)c5C(=O)[C@@H]4O)ccc3O[C@H]2CO)ccc1O` [SILYBIN B], the Activity (BJ) is reported as “Toxic”, the Activity (TERT-RPE1) is reported as “Toxic” and the Activity (MDA-MB-231) is reported as “Toxic”. The Activity (MCF7) was “Toxic”, the Activity (HL-60) was “Toxic” and the Activity (PC-3) was “Toxic”. The Activity (HepG2) was “Toxic”, the Activity [5] was “Toxic” and the Activity (K562) was “Toxic”. The Activity (CAL-51) was “Toxic”.
